The target in experiment [1] is T1, Trace amine-associated receptor 5 (Mus musculus, UniProt Q5QD14).
T1 sequence (Q5QD14 whole entry): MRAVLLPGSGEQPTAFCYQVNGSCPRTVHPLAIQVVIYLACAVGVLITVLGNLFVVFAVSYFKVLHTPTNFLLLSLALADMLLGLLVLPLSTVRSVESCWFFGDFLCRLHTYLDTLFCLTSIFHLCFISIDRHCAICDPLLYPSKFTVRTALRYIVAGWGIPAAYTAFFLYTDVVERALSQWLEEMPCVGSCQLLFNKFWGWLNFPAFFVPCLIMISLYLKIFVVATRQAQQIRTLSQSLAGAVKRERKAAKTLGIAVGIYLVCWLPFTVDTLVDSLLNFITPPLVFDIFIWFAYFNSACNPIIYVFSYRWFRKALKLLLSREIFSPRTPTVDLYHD
In words: Antagonist activity at mouse TAAR5 expressed in HEK293 cells assessed as inhibition of agonist induced cAMP release preincubated for 5 mins followed by addition of agonist by BRET assay. In kind it is functional, cell-based.

Experiment [2] addresses Trace amine-associated receptor 1 (Mus musculus, UniProt Q923Y8). In words: Antagonist activity at mouse TAAR1 expressed in HEK293 cells assessed as inhibition of agonist induced cAMP release preincubated for 5 mins followed by addition of agonist by BRET assay. It is filed as functional, cell-based.
The target in experiment [3] is T1, Trace amine-associated receptor 5. In words: (§1) Agonist activity at mouse TAAR5 expressed in HEK293 cells assessed as increase in cAMP release after 30 mins by BRET assay relative to control. It is filed as functional, cell-based.
The species entered for the next experiment is Mus musculus. The experiment is described as follows: Selectivity ratio of IC50 for mouse TAAR1 to IC50 for mouse TAAR5.
Experiment [4] has as its target T2, Trace amine-associated receptor 5 (Mus musculus) (UniProt Q5QD14).
T2 sequence (whole entry): T1 sequence (Q5QD14 whole entry)
The description is as §1. In kind it is functional, cell-based.

Experiment [5] deals with T3, Trace amine-associated receptor 1 (Homo sapiens) (UniProt Q96RJ0).
T3 sequence (whole entry): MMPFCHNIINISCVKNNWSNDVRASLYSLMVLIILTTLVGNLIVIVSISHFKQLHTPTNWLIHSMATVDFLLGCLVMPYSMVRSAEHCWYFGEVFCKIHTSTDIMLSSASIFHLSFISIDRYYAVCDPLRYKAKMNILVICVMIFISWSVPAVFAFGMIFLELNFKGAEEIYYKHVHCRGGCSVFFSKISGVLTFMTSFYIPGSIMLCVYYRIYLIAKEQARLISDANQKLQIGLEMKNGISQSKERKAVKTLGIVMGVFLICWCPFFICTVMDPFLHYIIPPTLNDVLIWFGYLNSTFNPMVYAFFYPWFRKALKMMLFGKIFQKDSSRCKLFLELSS
In words: Agonist activity at human TAAR1 expressed in HEK293 cells assessed as increase in cAMP release after 30 mins by BRET assay. It is filed as functional, cell-based.

Sequence of Trace amine-associated receptor 1 (Q923Y8 whole entry): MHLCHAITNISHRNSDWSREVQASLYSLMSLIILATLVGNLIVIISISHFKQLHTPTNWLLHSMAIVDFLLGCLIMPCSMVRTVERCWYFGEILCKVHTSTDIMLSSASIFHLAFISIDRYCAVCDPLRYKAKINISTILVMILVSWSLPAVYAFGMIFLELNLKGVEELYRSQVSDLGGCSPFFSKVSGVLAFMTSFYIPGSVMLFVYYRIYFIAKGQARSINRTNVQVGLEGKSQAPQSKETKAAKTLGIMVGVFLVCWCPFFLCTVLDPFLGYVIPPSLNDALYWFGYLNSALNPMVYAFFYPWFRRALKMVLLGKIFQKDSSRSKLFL

Consider `COc1ccccc1OCCNCC1CCC(c2ccccc2)(c2ccccc2)O1` (stereo not drawn), for which the half-maximal inhibitory concentration (IC50) is 29 µM in experiment [1] and above 100 µM in experiment [2].

As to `CN(C)C` [TRIMETHYLAMMONIUM], the concentration giving a half-maximal response (EC50) in experiment [3] was 2.1 µM.

For the compound `COc1ccccc1N1CCN(CC2CCC(c3ccccc3)(c3ccccc3)O2)CC1` (stereo not drawn), the values for the IC50 in experiment [1] and in experiment [2] were 4.8 µM and above 100 µM, respectively. Also, in the experiment listed under Mus musculus, the Ratio IC50 was above 20.

`NCCc1ccc(Oc2ccc(O)cc2)c(I)c1`: the fold change (FC) in experiment [4] was determined as 2; in experiment [5], 16.

The values above are taken from ChEMBL document CHEMBL3784953, “A homology modelling-driven study leading to the discovery of the first mouse trace amine-associated receptor 5 (TAAR5) antagonists” (Medchemcomm, 2016).
